pIC50: −log10 of the molar value. Where two headings read alike, the source gives them in different places.
Experiments:
Syk kinase = target: T1, Syk kinase (Homo sapiens, UniProt P43405); test: Syk kinase biochemical fluorescence polarization assay; settings: 11 pt, read-out: fp_syk, 11 pt
T1 construct: purchased Upstate, Lake Placid N.Y
Procedure: Many of the 2,4-pyrimidinediamine compounds were tested for the ability to inhibit Syk kinase catalyzed phosphorylation of a peptide substrate in a biochemical fluorescenced polarization assay with isolated Syk kinase. In this experiment, Compounds were diluted to 1% DMSO in kinase buffer (20 mM HEPES, pH 7.4, 5 mM MgCl2, 2 mM MnCl2, 1 mM DTT, 0.1 mg/mL acetylated Bovine Gamma Globulin). Compound in 1% DMSO (0.2% DMSO final) was mixed with ATP/substrate solution at room temperature. Syk kinase (Upstate, Lake Placid N.Y.) was added to a final reaction volume of 20 uL, and the reaction was incubated for 30 minutes at room temperature. […] EDTA (10 mM final)/anti-phosphotyrosine antibody (1× final)/fluorescent phosphopeptide tracer (0.5× final) was added in FP Dilution Buffer to stop the reaction for a total volume of 40 uL according to manufacturer's instructions (PanVera Corporation) The plate was incubated for 30 minutes in the dark at room temperature. Plates were read on a Polarion fluorescence polarization plate reader (Tecan). Data were converted to amount of phosphopeptide present using a calibration curve generated by competition with the phosphopeptide competitor provided in the Tyrosine Kinase Assay Kit, Green (PanVera Corporation).

[1] = tested on: cultured human mast cells (CHMC); test: CHMC low cell density IgE activation: tryptase assay; format: cell-based; settings: IgE activation
How it was run: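 Anti-IgE-driven degranulation of cultured human mast cells at low density, 1000–1500 cells/well, was induced over 30 min at 37 °C. It was scored by supernatant tryptase activity on a fluorogenic substrate.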

[2] = tested on: cultured human mast cells (CHMC); test: CHMC low cell density ionomycin activation: tryptase assay; format: cell-based; settings: read-out: LD Tryptase, CHMC, Iono, 3 pt
[3] = Homo sapiens, Mast cell, low cell density CHMC, tryptase, 3 pt, read-out: LD Tryptase, CHMC, IgE, 3 pt
[4] = Homo sapiens, Mast cell, low cell density CHMC, tryptase, 8 pt, read-out: LD Tryptase, CHMC, IgE, 8 pt
[5] = low cell density, 3 pt, read-out: LD Tryptase, CHMC, IgE, 3 pt
[6] = low cell density CHMC, tryptase, 3 pt, read-out: LD Tryptase, CHMC, IgE, 3 pt
[7] = low cell density CHMC, tryptase, 8 pt, read-out: LD Tryptase, CHMC, IgE, 8 pt
[8] = low cell density CHMC, tryptase, 3 pt
[9] = Homo sapiens, Mast cell, low cell density CHMC, tryptase, 3 pt

| Molecule | pIC50 [1, 6] | pIC50 [1, 7] | pIC50 [2, 8] | further results |
| --- | --- | --- | --- | --- |
| CNC(=O)c1cc2cccc(Nc3ncc(F)c(Nc4cc(OC)cc(OC)c4)n3)c2[nH]1 [Compound 368, N4-(3,5-Dimethoxyphenyl)-5-fluoro-N2-[2-(N-methylamino)carbonylindol-7-yl]-2,4-pyrimidinediamine] | – | – | – | pIC50 (Syk kinase; isolated Syk kinase): > 5.00; pIC50 [1, 3]: > 5.00 |
| COc1cc(Nc2nc(Nc3cccc4cc(C(=O)N(C)CCO)[nH]c34)ncc2F)cc(OC)c1 [Compound 384] | – | – | – | pIC50 (Syk kinase; isolated Syk kinase): > 5.00; pIC50 [1, 3]: > 5.00; pIC50 [1, 4]: > 5.00 |
| COc1ccc(Nc2nc(Nc3cccc(-c4nnc(C(C)(C)C)o4)c3)ncc2F)cc1OC [Compound 530, N2-[ (2-tert-Butyl-1,3,4-oxadiazol-5-yl)phenyl]-N4-(3,4-dimethoxyphenyl)-5-fluoro-2,4-pyrimidinediamine] | – | – | – | pIC50 (Syk kinase): > 5.00; pIC50 [1, 5]: > 5.00; pIC50 ([1]; low cell density, 8 pt, read-out: LD Tryptase, CHMC, IgE, 8 pt): > 5.00 |
| COC(=O)CCNC(=O)c1ccc(Nc2ncc(F)c(Nc3ccc4c(c3)NC(=O)C(C)(C)O4)n2)cc1 [Compound 1302, N4-(2,2-Dimethyl-3-oxo-4H-benz[1,4]oxazin-6-yl)-5-fluoro-N2-[4-[N-(2-methoxycarbonylethyl)aminocarbonyl]phenyl]-2,4-pyrimidinediamine] | – | – | – | pIC50 [1, 3]: > 5.00; pIC50 [1, 4]: > 5.00; pIC50 [2, 9]: > 5.00 |
| COC(=O)CCNC(=O)c1ccc(Nc2ncc(F)c(Nc3ccc4c(c3)NC(=O)[C@H](C)O4)n2)cc1 [Compound 1303, (S)-5-Fluoro-N2-[4-[N-(2-methoxycarbonylethyl)aminocarbonyl]phenyl]-N4-(2-methyl-3-oxo-2H,4H-benz[1,4]oxazin-6-yl)-2,4-pyrimidinediamine] | – | – | – | pIC50 [1, 3]: > 5.00; pIC50 [1, 4]: > 5.00; pIC50 [2, 9]: < 5.00 |
| COC(=O)CCNC(=O)c1ccc(Nc2ncc(F)c(Nc3ccc4c(c3)NC(=O)C(F)(F)O4)n2)cc1 [Compound 1304] | – | – | – | pIC50 [1, 3]: > 5.00; pIC50 [1, 4]: > 5.00; pIC50 [2, 9]: < 5.00 |
| COC(=O)CCNC(=O)c1ccc(Nc2ncc(F)c(Nc3ccc(Cl)c(Cl)c3)n2)cc1 [Compound 1305] | – | – | – | pIC50 [1, 3]: > 5.00; pIC50 [1, 4]: > 5.00; pIC50 [2, 9]: > 5.00 |
| COC(=O)CCNC(=O)c1ccc(Nc2ncc(F)c(N(C)c3ccc(Cl)c(Cl)c3)n2)cc1 [Compound 1306] | – | – | – | pIC50 [1, 3]: > 5.00; pIC50 [1, 4]: > 5.00; pIC50 [2, 9]: < 5.00 |
| CC(C)(C)OC(=O)NCC(=O)NCc1ccc(Nc2ncc(F)c(Nc3ccc4c(c3)NC(=O)C(C)(C)O4)n2)cc1 [Compound 1307, N2-[4-[1-(tert-Butoxycarbonylamino)methylenecarbonylamino]methylphenyl]-N4-(2,2-dimethyl-3-oxo-4H-benz[1,4]oxazin-6-yl)-5-fluoro-2,4-pyrimidinediamine] | > 5.00 | > 5.00 | > 5.00 | – |
| C[C@@H]1Oc2ccc(Nc3nc(Nc4ccc(CNC(=O)CNC(=O)OC(C)(C)C)cc4)ncc3F)cc2NC1=O [Compound 1308, (S)-N2-[4-[1-(tert-Butoxycarbonylamino)methylenecarbonylamino]methylphenyl]-5-fluoro-N4-(2-methyl-3-oxo-2H,4H-benz[1,4]oxazin-6-yl)-2,4-pyrimidinediamine] | > 5.00 | > 5.00 | > 5.00 | – |
| CC(C)(C)OC(=O)NCC(=O)NCc1ccc(Nc2ncc(F)c(Nc3ccc4c(c3)NC(=O)C(F)(F)O4)n2)cc1 [Compound 1309, N2-[4-[1-(tert-Butoxycarbonylamino)methylenecarbonylamino]methylphenyl]-N4-(2,2-difluoro-3-oxo-4H-benz[1,4]oxazin-6-yl)-5-fluoro-2,4-pyrimidinediamine] | > 5.00 | > 5.00 | < 5.00 | – |
| CC(C)(C)OC(=O)NCC(=O)NCc1ccc(Nc2ncc(F)c(Nc3ccc(Cl)c(Cl)c3)n2)cc1 [Compound 1310, N2-[4-[1-(tert-Butoxycarbonylamino)methylenecarbonylamino]methylphenyl]-N4-(3,4-dichlorophenyl)-5-fluoro-2,4-pyrimidinediamine] | > 5.00 | > 5.00 | > 5.00 | – |
| (R)-5-Fluoro-N2-[4- (N-methoxycarbonylmethyleneamino)carbonylphenyl]-N4- (2-methyl-3-oxo-2H,4H-benz[1,4]oxazin-6-yl)-2,4-pyrimidinediamine [Compound 1272] | – | > 5.00 | < 5.00 | – |
| (S)-5-Fluoro-N2-[4- (N-methoxycarbonylmethyleneamino)carbonylphenyl]-N4- (2-methyl-3-oxo-2H,4H-benz[1,4]oxazin-6-yl)-2,4-pyrimidinediamine [Compound 1271] | – | > 5.00 | < 5.00 | – |
| N2- (3-Chloro-4-methoxyphenyl)-N4- (2,2-dimethyl-3-oxo-4H-benz[1,4]oxazin-6-yl)-5-fluoro-N4-methyl-2,4-pyrimidinediamine [Compound 394] | > 5.00 | – | > 5.00 | – |
| N2- (Bis-2-hydroxyethyl)-N4- (3,4-ethylenedioxyphenyl)-5-fluoro-N4-methyl-2,4-pyrimidinediamine [Compound 492] | – | – | – | pIC50 [1, 5]: < 5.00; pIC50 ([2]; low cell density, 3 pt): < 5.00 |
| N2-[4-[1- (tert-Butoxycarbonylamino)methylenecarbonylamino]methylphenyl]-N4- (3,4-dichlorophenyl)-5-fluoro-N4-methyl-2,4-pyrimidinediamine [Compound 1311] | > 5.00 | – | < 5.00 | – |
| N4- (2,2-Difluoro-3-oxo-4H-benz[1,4]oxazin-6-yl)-5-fluoro-N2-[4-[N- (N-methylamino)carbonylmethylene]aminocarbonylphenyl]-2,4-pyrimidinediamine [Compound 1297] | > 5.00 | – | < 5.00 | – |
| N4- (2,2-Dimethyl-3-oxo-4H-benz[1,4]oxazin-6-yl)-5-fluoro-N2-(1-methylindazol-6-yl)-2,4-pyrimidinediamine p-Hydroxybenzenesulfonic Acid Salt [Compound 768] | > 5.00 | > 5.00 | < 5.00 | – |
| N4- (4-Chloro-3-methoxyphenyl)-5-fluoro-N2-[1-(methoxycarbonylmethylene)indol-5-yl]-2,4-pyrimidinediamine [Compound 645] | – | – | – | pIC50 ([1]; low cell density CHMC, tryptase release, 3 point, read-out: LD Tryptase, CHMC, IgE, 3 pt): > 5.00; pIC50 ([1]; low cell density CHMC, tryptase release, 8 point, read-out: LD Tryptase, CHMC, IgE, 8 pt): > 5.00; pIC50 ([2]; low cell density CHMC, tryptase release, 3 point): < 5.00 |

The next lines start with results.

| pIC50 [1, 6] | pIC50 [1, 7] | pIC50 [2, 8] | Molecule | further results |
| --- | --- | --- | --- | --- |
| > 5.00 | > 5.00 | < 5.00 | CNC(=O)CNC(=O)c1ccc(Nc2ncc(F)c(Nc3ccc4c(c3)NC(=O)C(C)(C)O4)n2)cc1 [Compound 1295, N4-(2,2-Dimethyl-3-oxo-4H-benz[1,4]oxazin-6-yl)-5-fluoro-N2-[4-[N-(N-methylamino)carbonylmethylene]aminocarbonylphenyl]-2,4-pyrimidinediamine] | – |
| > 5.00 | > 5.00 | < 5.00 | CNC(=O)CNC(=O)c1ccc(Nc2ncc(F)c(Nc3ccc4c(c3)NC(=O)[C@H](C)O4)n2)cc1 [Compound 1296, (S)-5-Fluoro-N2-[4-[N-(N-methylamino)carbonylmethylene]aminocarbonylphenyl]-N4-(2-methyl-3-oxo-2H,4H-benz[1,4]oxazin-6-yl)-2,4-pyrimidinediamine] | – |
| > 5.00 | > 5.00 | < 5.00 | CNC(=O)CNC(=O)c1ccc(Nc2ncc(F)c(Nc3ccc(Cl)c(Cl)c3)n2)cc1 [Compound 1300, N4-(3,4-Dichlorophenyl)-5-fluoro-N2-[4-[N-(N-methylamino)carbonylmethylene]aminocarbonylphenyl]-2,4-pyrimidinediamine] | – |
| > 5.00 | > 5.00 | < 5.00 | CNC(=O)CNC(=O)c1ccc(Nc2ncc(F)c(N(C)c3ccc(Cl)c(Cl)c3)n2)cc1 [Compound 1301, N4-(3,4-Dichlorophenyl)-5-fluoro-N4-methyl-N2-[4-[N-(N-methylamino)carbonylmethylene]aminocarbonylphenyl]-2,4-pyrimidinediamine] | – |

— patent US20220073536A1 (Rigel Pharmaceuticals, Inc., priority 2003, published 2022)
